Experimental data from PubChem BioAssay AID179 (DTP/NCI, 2004).
Calls of active or inactive are those of the source.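 The calls were made as follows: active = compounds giving half or more protection of infected cells from virus-caused growth loss, again on retest; inactive = the rest.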 Where a SMILES comes first, the peptide text is derived from it.

System: CEM cells HIV-1 protection, formazan growth assay
Experiment: NCI AIDS Antiviral Assay
Details: for IC50: measured here: growth of uninfected CEM cells
Summary of the method: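 Screen of anti-HIV-1 activity in human CEM cells using a formazan-based growth measurement at five drug concentrations. Hits with 50% or greater protection were repeated, and confirmation required reproducible complete protection.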

SMILES | EC50 [µM] | IC50 [µM] | outcome
O=C1/C(=C\c2c(-c3ccccc3)nn(-c3ccccc3)c2O)C(c2ccccc2)=NN1c1ccccc1 | > 100 | > 100 | –
CCCCNC(=S)N/N=C/c1cccc(C)n1 | > 200 | 12 | –
O=C(NCCCN(CCCCN(CCCNC(=O)C(F)(F)F)CCCc1ccccc1)CCCc1ccccc1)C(F)(F)F | > 200 | 9.77 | –
CC(C)(CC#N)c1cc(CC(C)(C)c2cc(CC(C)(C)c3cc(C(C)(C)C4(C)OCCO4)no3)no2)no1 | > 200 | 60.3 | –
Cc1ccc2c(c1)[n+]([O-])c(N)n[n+]2[O-] | > 200 | 19.1 | –
N#CC1C2C1C1C=CC2n2c(=O)n(-c3ccccc3)c(=O)n21 (configuration not stated) | > 200 | > 200 | –
CN(C)C=Nc1ccc2[nH]c3ccccc3c2c1 | > 200 | 107 | –
CSc1nc2nc(C(O)C(O)C(O)CO)cnc2c(=O)[nH]1 (configuration not stated) | – | – | inactive
CC(C)OP(=O)(OC(C)C)C(C(C)C)N(C)/C(N)=N\C1=NC(C(F)(F)F)(C(F)(F)F)N=C(C(C(F)(F)F)C(F)(F)F)O1 (configuration not stated) | > 200 | 0.0631 | –
O=[N+]([O-])c1ccc2nc(-c3ccccc3[N+](=O)[O-])[nH]c2c1 | > 126 | 24.5 | –
Cc1cc(C23OC4COC(C)(C)OC4C2OC(C)(C)O3)ncn1 (configuration not stated) | > 200 | > 200 | –
CCOC(=O)[C@H]1Nc2c(cccc2[N+](=O)[O-])C2c3ccccc3CC21 (some centres not stated) | > 15.5 | > 15.5 | –
Cc1ccc(S(=O)(=O)C2=c3ncccc3=C3C(=O)c4ccccc4C(=O)C32)cc1 (configuration not stated) | – | – | inactive
COC(=O)c1ccc(CCC2=CC(=O)C=CC2=O)cc1 | > 200 | 7.59 | –
O=[N+]([O-])/C=C/c1c[nH]c2c1ccc1ccccc12 | > 200 | 4.27 | –
CCC1([N+](=O)[O-])CN(N=O)C1 | > 200 | > 200 | –
CCOC(=O)n1ccc2c(C(=O)OC)c(C(=O)OC)cc(/C(=C/C(=O)OC)C(=O)OC)c21 | > 151 | 102 | –
O=C1NC(=O)C2(CCCCC2)N1 | > 200 | > 200 | –
CC(NC1=NCCO1)c1ccco1 (configuration not stated) | > 200 | > 200 | –
CC1=CC(=O)C2(C)CC[C@]3(O)CCCC123 (some centres not stated) | – | – | inactive
Cc1cc(S(=O)(=O)Nc2nnc3c4c(C)csc4ncn23)c(S)cc1Cl | > 200 | 110 | –
CCN(CC)CCCn1c(=O)c2ccccc2n2c3c(=O)n(C)c(=O)n(C)c3nc12 | > 200 | 1.05 | –

SMILES | EC50 [µM] | IC50 [µM] | outcome
CC(=O)Nc1ccc(CNc2cc(=O)[nH]c(=O)[nH]2)cc1 | > 200 | > 200 | –
COc1ccc(-c2nc(-c3ccc(OC)cc3)n(-c3ccccc3)n2)cc1 | > 200 | 58.9 | –
O=C(O)c1cc2c(cc1CC(Cc1ccccc1)C(=O)O)CCC2 (configuration not stated) | – | – | inactive
COC(=O)C1CC2c3[nH]c4ccccc4c3CCN2C1 (configuration not stated) | > 275 | > 275 | –
COc1cc(=O)cc2n(c1=O)CCC2 | > 447 | > 447 | –
CCOC(=O)C1(C(=O)OCC)Cc2c([nH]c3ccccc23)CN1C(=O)c1ccccc1 | > 22.4 | > 22.4 | –
CCOC(=O)C1=C(C)NC(=O)NC1c1ccccc1 (configuration not stated) | > 200 | > 200 | –
COc1cc2c(c([N+](=O)[O-])c1)NC(=O)C(C)S2 (configuration not stated) | > 200 | 49 | –
C1CCN(C2OC3C(COC3N3CCCCC3)OC2OC2CCO[C@@H]2N2CCCCC2)CC1 (some centres not stated) | > 38.9 | 3.39 | –
COC(=O)CSc1nnc(CSc2ccc(Cl)cc2)n1-c1ccccc1 | > 200 | 105 | –
CCC[C@@H]1C(=O)N=C(N)N1C(=O)OCc1ccccc1 | > 200 | > 200 | –
c1ccc([P+](CCCCCCCCCC[P+](c2ccccc2)(c2ccccc2)c2ccccc2)(c2ccccc2)c2ccccc2)cc1 | > 200 | 0.589 | –
Cc1cn(C2C(CO)C(CO)C2(F)F)c(=O)[nH]c1=O (configuration not stated) | > 200 | > 200 | –
O=S(=O)(O)c1ccc(N=Nc2ccc(S(=O)(=O)O)cc2)cc1 | – | – | inactive
Cc1nc2ccccc2c(=O)n1-c1ccccc1 | > 1050 | 631 | –
CCOC1c2cc(C(C)C)c(O)c(O)c2[C@@]23CCCC(C)(C)C2C1OC3=O (some centres not stated) | > 200 | 9.33 | –
CC(=O)N1N=C(N)CC1=O | > 200 | > 200 | –
S=C1NC(/C=C/c2ccccc2)Nc2ccccc21 (configuration not stated) | > 26.9 | > 26.9 | –
Clc1ccccc1CN1COc2c(ccc3ccccc23)C1 | > 200 | 28.8 | –
Nc1ccccc1C(=O)NNC(=O)c1ccccc1O | > 200 | 16.6 | –
CCOC(=O)c1c(SC(=O)C(C)(C)Oc2ccc(Cl)cc2)n(-c2ccccc2)c(=S)n(-c2ccccc2)c1=O | > 200 | 9.55 | –
CC1OC(OC2C(O)C(O)C(N=C(N)N)C(O)C2N=C(N)N)C(OC2OC(CO)C(O)C(O)C2N(C)N=O)C1(O)C=O (configuration not stated) | – | – | inactive

SMILES | EC50 [µM] | IC50 [µM] | outcome
N#C/C(=C\c1ccc(C#N)cc1)C(=O)c1ccccc1 | > 97.7 | 41.7 | –
O=S(Cc1cc2c(cc1-c1ccccc1)OCO2)c1ccccc1 (configuration not stated) | > 269 | 9.55 | –
C[n+]1c2ccccc2n2c3ccccc3c(NCCCN3CCOCC3)c(C#N)c21 | > 20 | 0.676 | –
COc1cccc(/C=N/[N-]C(=O)c2ccncc2)c1[O-].COc1cccc(/C=N/[N-]C(=O)c2ccncc2)c1[O-].[O]=[U](=[O])([OH2+])[OH2+] | > 214 | 4.9 | –
NC(=O)CCC(N=c1c2ccccc2n(O)c2ccccc12)C(=O)O (configuration not stated) | – | – | inactive
COC(=O)CC[N+]1=CCC(c2ccccc2)(c2ccccc2)O1 | > 115 | 69.2 | –
Cn1c(COC(=O)Nc2ccccc2)c(COC(=O)Nc2ccccc2)c2ccc3cc(Cl)c(Cl)cc3c21 | > 200 | 0.468 | –
CC(=O)O[C@H]1CC[C@@]2(C)C(=CC[C@H]3[C@@H]4CC[C@H]([C@H](C)C(=O)OCC5OC(n6cc(C)c(=O)[nH]c6=O)CC5N=[N+]=[N-])[C@@]4(C)CC[C@@H]32)C1 (some centres not stated) | > 200 | 4.79 | –
COc1cc(-c2ccc(Nc3ccccc3C(=O)O)c(OC)c2)ccc1Nc1ccccc1C(=O)O | > 200 | 0.692 | –
CC(C)(C)c1ccc(SS(=O)(=O)c2ccc(C(C)(C)C)cc2)cc1 | 20 | 22.9 | –
CC(C)(C)C1(c2ccc(C3(c4ccccc4)Oc4ccccc4S3)[nH]2)Oc2ccccc2S1 (configuration not stated) | – | – | inactive
COc1cc(NCCCCCN=C(N)NC#N)c2ncccc2c1 | > 79.4 | 50.1 | –
[O-][n+]1onc2c1CCC(=N\O)/C2=N/Nc1ccccc1 | > 200 | 155 | –
CC(C)CC(N)C(=O)NC(CC(=O)O)C(=O)NC(CCCCN)C(=O)NC(C)C(=O)NC(CO)C(=O)NC(Cc1ccc(O)cc1)C(=O)NC(CO)C(=O)NC(C(=O)NC(CC(N)=O)C(=O)NC(Cc1cnc[nH]1)C(=O)NC(CC(C)C)C(=O)O)C(C)O (configuration not stated) (H-LDKASYSTNHL-OH; configuration not given here) | > 50.1 | > 50.1 | inactive
O=C(c1cc2ccccc2o1)N(Cc1ccccc1)c1ccccc1 | > 79.4 | > 79.4 | –
Clc1ccccc1CN1COc2c(ccc3cccnc23)C1 | > 30.9 | 1.58 | –
CC1CCC2(OC2(C)C)C(=O)C1 (configuration not stated) | > 200 | > 200 | –
O=C(O)Cc1cccc2c(=O)c3cccc([N+](=O)[O-])c3[nH]c12 | > 200 | 102 | –
CCOP(OCC)SSCn1nc2ccc3ccccc3n2c1=O | > 200 | 70.8 | –
Cc1cc2c(c3ncccc13)OCN(Cc1ccc(Cl)c(Cl)c1)C2 | > 100 | 1.05 | –
COC(=O)C1(Cc2ccccc2)Cc2cc3c(cc2C1)CCC3 | > 200 | 60.3 | –
COc1c(N2CCCCC2)c2c(=O)c3ccccc3oc2c2c3ccccc3n(C)c12 | 170 | 195 | –

SMILES | EC50 [µM] | IC50 [µM] | outcome
O=C(N/C(=C\c1ccc(Oc2ccc(Cl)c(Cl)c2)cc1)c1nc2ccccc2[nH]1)c1ccccc1 | – | – | inactive
COc1cc2ccccc2oc1=O | > 40.7 | > 40.7 | –
Cn1[nH]c(=O)ccc1=O | > 2000 | 1780 | –
CC(C)(C)N=P(c1ccccc1)(c1ccccc1)c1ccccc1 | > 200 | 191 | –
COc1ccc(/C=C2\SC(=S)NC2=O)cc1 | > 28.8 | > 28.8 | –
CC(NC(CC12CC3CC(CC(C3)C1)C2)C(N)=O)c1ccccc1 (configuration not stated) | > 200 | 34.7 | –
COc1cccc(C2C(C(=O)O)=C(CO)Oc3cc4c(cc32)OCO4)c1 (configuration not stated) | – | – | inactive
Cc1ccc2c(c1)sc1n[nH]c(=S)n12 | > 117 | > 117 | –
BrCC[N+]12CCCN1CCC2 | – | – | inactive
O=C(O)/C=C\C(=O)NCCCNC(=O)/C=C\C(=O)O | > 933 | > 933 | –
Cc1nn(C(=O)c2ccc(Cl)cc2)c2c1C(c1ccc([N+](=O)[O-])cc1)SC(N)=N2 (configuration not stated) | > 200 | 97.7 | –
COc1cc(CNc2nc3c(N)cc(C(F)(F)F)cc3nc2-c2ccccc2)cc(OC)c1OC | > 20.4 | > 20.4 | –
Cc1ccc(S(=O)(=O)c2c3[nH]c4ccccc4nc3n3c2nc2ccccc23)cc1 | > 120 | > 120 | –
Oc1ccc(-c2ccc(O)cc2O)c(O)c1 | > 200 | 132 | –
CCOCC(Br)C(OCC)OCC (configuration not stated) | – | – | inactive
c1ccc(C2(c3ccccc3)SCCCS2)cc1 | > 19.1 | > 19.1 | –
C1=CNc2ccccc2N=C1 | > 200 | > 200 | –
Nc1nccc2c1ncn2C1OC(CO)C(O)C1O (configuration not stated) | > 933 | 30.2 | –
C[C@]12CC[C@@H]3c4ccc(OC(=O)c5ccccc5)cc4CC[C@H]3[C@@H]1CCC2OC(=O)c1cccc2c(=O)c3ccccc3[nH]c12 (some centres not stated) | > 151 | 7.94 | –
Fc1c(F)c(F)c(S)c(F)c1F | – | – | active
Nc1c(N2CCCCC2)c(=O)nc2[nH]/c(=C\c3ccco3)c(=O)n12 | > 200 | 158 | –
